Laboratory results as given in patent US5753631A, “Intercellular adhesion mediators” (Cytel Corporation, priority 1995, dated 1998).

Legend:
recombinant E-selectin = target: T1, recombinant E-selectin (Homo sapiens, UniProt P16581); assay: HL-60 cell binding to recombinant E-selectin; format: cell-based; details: for inhibition of binding of HL-60 cells to recombinant E-selectin: FIG. 13
T1 sequence (P16581 22-556 limits assumed): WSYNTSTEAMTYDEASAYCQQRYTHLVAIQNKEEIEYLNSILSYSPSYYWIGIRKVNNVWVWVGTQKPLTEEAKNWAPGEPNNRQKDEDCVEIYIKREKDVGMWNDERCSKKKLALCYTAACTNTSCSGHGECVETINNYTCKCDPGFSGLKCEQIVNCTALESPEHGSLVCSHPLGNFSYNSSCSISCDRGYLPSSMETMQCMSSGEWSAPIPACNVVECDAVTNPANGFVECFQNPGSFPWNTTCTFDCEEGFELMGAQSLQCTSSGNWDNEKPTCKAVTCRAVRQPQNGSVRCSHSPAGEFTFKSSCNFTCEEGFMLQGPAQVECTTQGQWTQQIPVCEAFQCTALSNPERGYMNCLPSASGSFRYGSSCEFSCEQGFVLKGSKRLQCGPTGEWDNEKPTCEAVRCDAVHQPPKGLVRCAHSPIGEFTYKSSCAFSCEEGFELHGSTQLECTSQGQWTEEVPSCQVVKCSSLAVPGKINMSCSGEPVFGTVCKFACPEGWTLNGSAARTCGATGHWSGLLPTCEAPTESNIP
Protocol: In this assay recombinant soluble E-selectin is bound to the plastic surface of a 96 well ELISA plate. Dilutions of test compounds are added to the wells followed by HL-60 cells which bear the ligand for E-selectin. The cells are allowed to adhere to the E-selectin coated assay plate and the nonadherent cells are removed by washing the plate with an automated plate washer. Bound cells are quantitated by measuring the cellular enzyme myeloperoxidase. The concentration of oligosaccharide required to achieve 50% inhibition of control adhesion is used to compare analogs for potency.
Microflex III 96 well ELISA plates were coated with 50 μL of recombinant E-selectin (4 μg/mL) in Dulbecco's phosphate buffered saline (DPBS) and incubated at room temperature for 3 hours. The plates were then washed three times with 200 μL DPBS containing bovine serum albumin (10 mg/mL: DPBS-BSA) and incubated at room temperature for 60 minutes with DPBS-BSA.
Oligosaccharides to be tested were prepared in 1.5 mL eppendorf tubes by adding enough DPBS to make each sample a 10 mM solution according to its molecular weight. The pH was adjusted to be within 7.0 and 7.4.
After 30 minutes 2×10^5 HL-60 cells (10^7 /mL) were added and incubated for 15 minutes at room temperature. The unbound cells were removed by washing the plate 3 times with HBSS containing HEPES buffer (20 mM), glucose (0.2%), CaCl2 (1 mM) and BSA (10 mg/mL). After removal of the wash buffer the bound cells remaining were lysed by addition of Nonidet P 40 (0.1%) in 25 mM citrate/phosphate buffer. After 5 minutes 50 μL of o-phenylenediamine dihydrochloride (1 mg/mL) in citrate/phosphate buffer containing 0.001% hydrogen peroxide was added to each well. After 5 to 10 minutes the development of color was halted by the addition of 40 μL of H2 SO4. Color developed was measured in a plate reading spectrophotometer at 492 nm.

[1] = tested on: CVF-induced acute lung injury; assay: Cobra venom factor (CVF)-induced acute lung injury in the rat; format: in vivo
Protocol: Groups of rats were pretreated with either vehicle, SLN-OH (0.6 mg/Kg), or with SLX-OH (0.6 mg/Kg) 5 minutes prior to administration of either CVF or PBS. Each bar represents the mean of 6 animals and vertical lines represent the standard error of the mean.
Groups of rats were pretreated with either vehicle or Z at the indicated doses 5 minutes prior to administration of CVF or PBS. Each point represents the mean of 6 animals and vertical lines represent the standard error of the mean.
The intravenous injection of CVF produces intravascular complement activation which results in lung injury, defined as an increase in neutrophil accumulation within the lung, an increase in pulmonary vascular permeability and in lung hemorrhage. It is likely that intravascular complement activation results in the generation of a wide range of inflammatory mediators. Of particular relevance to the studies described here is generation of the split fifth complement component, C5a, which can stimulate the release of histamine from circulating basophils and tissue mast cells. […] The expression of selectins, including P-selectin, is a necessary first step in the process of leukocyte adherence to vascular endothelium.
Animals were dosed with different oligosaccharide preparations or phosphate buffered saline (PBS) five minutes before administration of cobra venom factor (20 units/Kg, i.v.). Included in this material was an aliquot of ^125 I-bovine serum albumin (0.5 μCi) and ^51 Cr labelled autologous red blood cells (0.5 μCi) for measuring plasma extravasation and hemorrhage respectively. Thirty minutes after administration of the cobra venom factor the animals were anesthetized with ketamine hydrochloride (10 mg/Kg) and exsanguinated via the posterior vena cava. The lung vasculature was then perfused through the right cardiac ventricle with 10 mL of PBS. The lungs were removed and the amount of radioactivity remaining within the tissue assessed with a gamma scintillation counter. Increased pulmonary vascular permeability was measured as the ratio of ^125 I in lung tissue compared with the amount present in 1 mL of venous blood obtained at the time of death. Lung hemorrhage was measured as the ratio of ^51 Cr in lung tissue compared with the amount present in 1 mL of venous blood obtained at the time of death. Neutrophil accumulation in lungs was determined by measuring the myeloperoxidase activity of lungs homogenized in PBS. Myeloperoxidase activity in lung supernatants was assayed by measuring the change in absorbance at 460 nm resulting from decomposition of H2 O2 in the presence of o-dianisidine

[2] = dose range 0.15 to 1.5 mg/Kg (FIG. 17)

SMILES	inhibition of binding of HL-60 cells to recombinant E-selectin (recombinant E-selectin)	effect on CVF-induced permeability, hemorrhage, MPO / lung injury ([1]; in words, prior to CVF, 30 minutes)	IC50 (recombinant E-selectin; read-out: IC50 for inhibition of HL-60 cell binding to recombinant E-selectin)	reduction of hemorrhage [1, 2]	reduction of neutrophil MPO content [1, 2]	reduction of permeability values [1, 2]	dose at which protective effects plateau ([1]; rat, in vivo)
CC(=O)NC1C(O)OC(CO)C(OC2OC(CO)C(O)C(OC3(C(=O)O)CC(O)C(NC(C)=O)C(C(O)C(O)CO)O3)C2O)C1O (centres unmarked) [SLN, reference compound]	not	did not inhibit CVF-induced neutrophil accumulation or CVF-induced lung injury	–	–	–	–	–
CCO[C@@H]1O[C@H](CO)[C@H](O)[C@H](O[C@@H]2O[C@H](CO)[C@@H](O[C@@H]3O[C@H](CO)[C@H](O)[C@H](O[C@]4(C(=O)O)C[C@H](O)[C@@H](NC(C)=O)[C@H]([C@H](O)[C@H](O)CO)O4)[C@H]3O)[C@H](O[C@@H]3O[C@@H](C)[C@@H](O)[C@@H](O)[C@@H]3O)[C@H]2NC(C)=O)[C@H]1O [Z, Ethyl(sodium(5-acetamido-3,5-dideoxy-α-D-glycero-D-galacto-2-nonulopyanosylonate))-(2-3)-O-(β-D-galactopyranosyl)-(1-4)-O-((α-L-fucopyranosyl)-(1-3))-O-(2-acetamido-2-deoxy-β-D-glucopyranosyl)-(1-3)-O-β-D-galactopyranoside]	inhibited in a concentration dependent manner	–	~500 µM	47%	49%	67%	0.6 mg/kg
